The text below walks through data of patent US10633354B2, “Substituted tricyclic heterocyclic compounds” (BRISTOL-MYERS SQUIBB COMPANY, priority 2016, dated 2020).

The target in one test is T1, S1P3 (Homo sapiens, UniProt Q99500).
T1 construct: expressed in transfected cells; host or cells: HEK293T cells (EDG3-Ga15-bla), membranes
The test is described as follows: Receptor [35S] GTPγS binding assay (S1P3 GTPγS). Type of test: biochemical. Conditions: membranes from EDG3-Ga15-bla HEK293T cells; read-out: S1P3 GTPgS (EC50). On the procedure:
(§1) The compounds of Formula (I), Formula (II), Formula (III), and Formula (IV), and salts thereof in which R2 is —OH, engage their biological targets (e.g. S1P1) after bioactivation through phosphorylation of the alcohol to provide an active phosphate ester compound of Formula (I), Formula (II), Formula (III), and Formula (IV), or salts thereof, in which R2 is —OP(O)(OH)2. In vitro characterization of biological activity of the examples was conducted on synthetically prepared samples of the phosphorylated compounds.
(§2) Receptor [^35S] GTPyS Binding Assays: (S1P1 GTPyS/S1P3 GTPyS)
(§3) Compounds were loaded in a 384 Falcon v-bottom plate (0.5 μl/well in a 11 point, 3-fold dilution). Membranes prepared from S1Pi/CHO cells or EDG3-Ga15-bla HEK293T cells (EDG3 equivalent S1P3) were added to the compound plate (40 μl/well, final protein 3 μg/well) with MULTIDROP®. [^35S] GTP (1250 Ci/mmol, Perkin Elmer) was diluted in assay buffer: 20 mM HEPES, pH7.5, 10 mM MgCl2, 150 mM NaCl, 1 mM EGTA (ethylene glycol tetraacetic acid), 1 mM DTT (Dithiothreitol), 10 μM GDP, 0.1% fatty acid free BSA, and 10 μg/ml Saponin to 0.4 nM. 40 μl of the [^35S] GTP solution was added to the compound plate with a final concentration of 0.2 nM. The reaction mixture was kept at room temperature for 45 min. At the end of incubation, all the mixtures in the compound plate were transferred to Millipore 384-well FB filter plates via the VELOCITY 11® Vprep liquid handler. The filter plate was washed with water 4 times by using the manifold Embla plate washer and dried at 60° C. for 45 min. MicroScint 20 scintillation fluid (30 μl) was added to each well for counting on the Packard TOPCOUNT®. ECso is defined as the agonist concentration that corresponds to 50% of the Ymax (maximal response) obtained for each individual compound tested.
(§4) A smaller value for GTPyS S1 P1 EC50 value indicated greater activity for the compound in the GTPyS S1P1 binding assay. A larger value for the GTPyS S1 P3 EC50 value indicated less activity in the GTPyS S1 P3 binding assay (Table A).
In general terms: GTPγS resists hydrolysis and so accumulates on activated G proteins.

The next test concerns the target T2, S1P1 (Homo sapiens, UniProt P21453).
T2 construct: expressed in transfected cells; host or cells: CHO cells (S1P1/CHO), membranes
Nature of the test: Receptor [35S] GTPγS binding assay (S1P1 GTPγS). Type of test: biochemical. As to conditions: membranes from S1P1/CHO cells; for S1P1 GTPgS (Ymax): maximal response; for EC50: phosphorylated compounds, read-out: S1P1 GTPgS (EC50). On the procedure: as §1, §2, §3, §4

A word on the EC50: it is the concentration giving half of the maximal effect.

T1 sequence (Q99500 whole entry): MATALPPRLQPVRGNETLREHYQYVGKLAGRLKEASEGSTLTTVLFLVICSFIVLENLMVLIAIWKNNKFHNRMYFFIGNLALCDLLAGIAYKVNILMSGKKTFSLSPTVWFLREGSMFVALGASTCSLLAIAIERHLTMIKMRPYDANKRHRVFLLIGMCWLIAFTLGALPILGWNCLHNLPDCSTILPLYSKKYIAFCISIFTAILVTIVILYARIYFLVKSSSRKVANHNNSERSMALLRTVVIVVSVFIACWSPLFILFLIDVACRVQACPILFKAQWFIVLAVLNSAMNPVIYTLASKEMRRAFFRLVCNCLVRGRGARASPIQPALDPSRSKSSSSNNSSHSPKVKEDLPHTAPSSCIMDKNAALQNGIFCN
T2 sequence (P21453 whole entry): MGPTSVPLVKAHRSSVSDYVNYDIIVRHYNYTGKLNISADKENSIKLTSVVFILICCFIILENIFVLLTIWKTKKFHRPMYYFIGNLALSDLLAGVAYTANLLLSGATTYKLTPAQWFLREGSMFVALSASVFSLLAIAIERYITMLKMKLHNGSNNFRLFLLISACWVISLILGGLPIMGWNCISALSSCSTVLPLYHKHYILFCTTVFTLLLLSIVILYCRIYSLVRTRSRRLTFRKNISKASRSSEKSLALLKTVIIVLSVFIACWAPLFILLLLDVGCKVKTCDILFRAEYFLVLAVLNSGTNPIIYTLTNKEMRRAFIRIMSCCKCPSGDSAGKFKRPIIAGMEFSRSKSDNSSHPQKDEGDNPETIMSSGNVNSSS

On to `CCCCCCCc1nc2c(s1)-c1ccc([C@H]3CC[C@](N)(COP(=O)(O)O)C3)cc1CC2` [Example 27], for which, at S1P3, the EC50 was more than 3000 nM. For the same compound, at S1P1, the “S1P1 GTPgS (Ymax)” value is on record as 98% and the EC50 was 10 nM.

For `CCCCOc1nc2c(s1)-c1ccc([C@H]3CC[C@](N)(COP(=O)(O)O)C3)cc1CC2` [Example 29], the EC50 at S1P3 was more than 3000 nM. At S1P1, the “S1P1 GTPgS (Ymax)” value came to 58% and the EC50 was found to be 30 nM.

For `CCCc1nc2c(s1)-c1ccc([C@H]3CC[C@](N)(COP(=O)(O)O)C3)cc1CC2` [Example 28], the EC50 at S1P3 is more than 3000 nM. Besides, at S1P1, the “S1P1 GTPgS (Ymax)” value stood at 79% and the EC50 was found to be 19 nM.
